For one data set, the target named is p70S6K1 (Homo sapiens, UniProt P23443). In words: Z′-LYTE biochemical kinase inhibition assay (SelectScreen, Thermo Fisher). Conditions: for inhibition at 10 µM: 10 µM compound concentration, high-throughput single-concentration screen; for IC50 / IC50 of inhibition of p70S6K1: 10-point titration, 3-fold dilutions from 25 μM. On the procedure: The high-throughput and dose-response curve assays against kinases were performed using the services of SelectScreen™ Biochemical Kinase Profiling Service by Thermo Fisher Scientific (Table 2; Supplementary Figure S13). The Z ´-LYTE biochemical assay employs a fluorescence-based, coupled-enzyme format based on the differential sensitivity of phosphorylated and non-phosphorylated peptides to proteolytic cleavage. The peptide substrate is labeled with two fluorophores—one at each end—that make up a fluorescence resonance energy transfer (FRET) pair. In the primary reaction, the kinase transfers the gamma-phosphate of ATP to a single tyrosine, serine, or threonine residue in a synthetic FRET-peptide. In the secondary reaction, a site-specific protease recognizes and cleaves non-phosphorylated FRET peptides. Phosphorylation of FRET-peptides suppresses cleavage by the development reagent. Cleavage disrupts FRET between the donor (i.e., coumarin) and acceptor (i.e., fluorescein) fluorophores on the FRET-peptide, whereas uncleaved, phosphorylated FRET-peptides maintain FRET. A ratiometric method, which calculates the emission ratio of donor emission to acceptor emission after excitation of the donor fluorophore at 400 nm, is used to quantitate reaction progress, as shown in the equation below.” Emission ratio=Coumarin emission 445 nm/Flourescein emission 520 nm.
The test compounds were screened in 1% DMSO (final) in the well. For 10-point titrations, 3-fold serial dilutions were conducted from the starting concentration of 25 μM.
All peptide/kinase mixtures are diluted to a 2× working concentration in the appropriate kinase Buffer. The 2X RPS6KB1 (p70S6K)/Ser/Thr 07 mixture is prepared in 50 mM HEPES pH 7.5, 0.01% BRIJ-35, 10 mM MgCl2, 1 mM EGTA. The final 10 µL kinase reaction consists of 2.87–17.7 ng RPS6KB1 (p70S6K) and 2 µM Ser/Thr 07 in 50 mM HEPES pH 7.5, 0.01% BRIJ-35, 10 mM MgCl2, 1 mM EGTA. After the 1 h kinase reaction incubation, 5 µL of a 1:45000 dilution of Development Reagent A is added.
All ATP Solutions are diluted to a 4X working concentration in kinase buffer (50 mM HEPES pH 7.5, 0.01% BRIJ-35, 10 mM MgCl2, 1 mM EGTA). ATP Km apparent was previously determined using a Z′-LYTE assay.
Bar-coded Corning, low volume NBS, black 384-well plate (Corning Cat. #4514). • 1. 100 nL 100X test compound in 100% DMSO • 2. 2.4 µL kinase buffer • 3. 5 μL 2X peptide/kinase mixture • 4. 2.5 µL 4X ATP solution • 5. 30-s plate shake • 6. 60-min kinase reaction incubation at room temperature • 7. 5 μL Development Reagent solution • 8. 30-s plate shake • 9. 60-min Development Reaction incubation at room temperature • 10. Read on the fluorescence plate reader and analyze the data
The SelectScreenTM Biochemical Kinase Profiling Service by ThermoFisher Scientific was used to perform a high-throughput kinase inhibition assay at a single concentration as well as 10-point titrations to generate the dose-response curves for IC50 calculations. The Z′-LYTE biochemical assay, which is a FRET-based assay, was used to analyze the compounds for p70S6K1 inhibition. Compounds 5a–f were subjected to an initial high-throughput screening against p70S6K1 at 10 µM concentration (Table 1).

Data set [1] has as its system rpS6 phosphorylation (S235/236, S240/244). As to the kind of experiment: Western blot of rpS6 and phospho-rpS6 in MCF7 cells. Type of data set: cell-based, Human. Conditions: MCF7 cells estrogen deprived, 5 µM and 10 µM, with β estradiol, 24 h and 48 h. The method, then:
Total proteins were isolated using standard protocols as previously described ([Greenberg et al., 2022]; [Kim H. et al., 2013]). In brief, ice-cold RIPA lysis buffer containing phosphatase and protease inhibitors (Santa Cruz Biotechnology, Dallas, TX, USA) was used to lyse cells. The clarified lysate protein concentration was measured using Bradford reagent (Thermo Scientific, Waltham, MA, USA). The proteins were separated using a 4%–20% SDS-PAGE gradient gel and transferred onto a PVDF membrane (Bio-Rad, Hercules, CA, USA). A 1X blocking buffer was used to block the non-specific binding sites. The membranes were washed with Tris-buffered saline (Bio-Rad) containing 0.1% Tween-20 (Sigma-Aldrich, St. Louis, MO, USA). Membranes were incubated overnight with primary antibodies at 4°C. […] Immune complexes were detected with appropriate secondary antibodies from Invitrogen (Camarillo, CA, USA) and Clarity Western ECL Substrate (Bio-Rad), as described ([Greenberg et al., 2022]). […] Results were expressed as the standard error of the mean (±SEM). Significant changes from controls or E2 treated group were determined by a two-tailed Student’s t-test, and p-values of <0.05 were considered significant. […]

Another data set concerns MCF7 E3 cells. In words: MCF-7 E3 cell proliferation assay (alamarBlue). The format is cell-based. To be noted: Homo sapiens, 10 μM compound, in the presence of E2 (10^−10 M), estrogen-deprived cells. On the procedure: Human breast tumor cells MCF-7 subclone E3 were routinely maintained in DMEM medium (Mediatech) supplemented with non-essential amino acid (Gibco), sodium pyruvate (Gibco), L-glutamine (Gibco), gentamicin (Gibco), and 10% fetal bovine serum (FBS) (Hyclone). For the proliferation experiment, the MCF-7 monolayer was dispersed into suspension in DMEM medium with 10% FBS, and 5 × 10^5 cells were seeded into a T-25 flask. The medium was aspirated from the cells, washed with phosphate buffer saline, and cultured with DMEM medium containing dextran-coated charcoal (DCC) FBS for 6 days. After 6 days, the cells were dispersed into suspension, counted, and 1.8 × 10^4 cells per well in a 100 µL DCC medium was subcultured into 96-well plates. After 24 h incubation, the medium was aspirated and replaced with the test compound at 10^−5 M. The cells were dosed again after 3 days and grown for another 3 days. Measurement for cell proliferation was performed with alamarBlue (Bio-Rad) on a plate reader (BioTek Synergy Neo2) with 560 nm excitation and 590 nm emission. The experiments were performed in quadruplicate.
The MCF7 cell line is often used in studies involving ERα overexpressing BC. It is well-established that overexpression of estrogen leads to overexpression of p70S6K1 due to the costimulatory relationship between them, thereby driving the progression of BC ([Fullwood et al., 2009]; [Maruani et al., 2012]). The knockdown or absence of estrogen was partially abrogated by p70S6K1 rescuing and promoting ERα activity ([Holz, 2012]; [Yamnik et al., 2009]). For these reasons, MCF7 cells were used for the proliferation studies in the presence of our p70S6K1 inhibitors. MCF7 E3 cells were grown under estrogen-deprived conditions and treated with 10 μM concentrations of the compounds with and without E2 (10^−10 M). The proliferation was measured using alamarBlue (Figure 5). Compound 5b, with the best p70S6K1 inhibition potency of 0.4 μM IC50 value, inhibited the proliferation of MCF7 E3 cells by 60% in the presence of E2. […] The trend of MCF7 E3 proliferation was directly proportional to the p70S6K1 inhibition potency.

Details of data set [2]: method as in Li et al., 2010; Motzer et al., 2015; Tolcher et al., 2014. To be noted: given with erlotinib and everolimus; ref Li et al., 2010; Motzer et al., 2015; Tolcher et al., 2014; cited from earlier work.
Details of data set [3]: method as in Pearce et al., 2010; Segatto et al., 2016. Conditions: ref Pearce et al., 2010, Segatto et al., 2016, cited from earlier work.
For a further data set, the system named is cervical cancer cells. Further details: method as in Nam et al., 2019. To be noted: ref Nam et al., 2019; cited from earlier work.

p70S6K1, sequence (P23443 24-525): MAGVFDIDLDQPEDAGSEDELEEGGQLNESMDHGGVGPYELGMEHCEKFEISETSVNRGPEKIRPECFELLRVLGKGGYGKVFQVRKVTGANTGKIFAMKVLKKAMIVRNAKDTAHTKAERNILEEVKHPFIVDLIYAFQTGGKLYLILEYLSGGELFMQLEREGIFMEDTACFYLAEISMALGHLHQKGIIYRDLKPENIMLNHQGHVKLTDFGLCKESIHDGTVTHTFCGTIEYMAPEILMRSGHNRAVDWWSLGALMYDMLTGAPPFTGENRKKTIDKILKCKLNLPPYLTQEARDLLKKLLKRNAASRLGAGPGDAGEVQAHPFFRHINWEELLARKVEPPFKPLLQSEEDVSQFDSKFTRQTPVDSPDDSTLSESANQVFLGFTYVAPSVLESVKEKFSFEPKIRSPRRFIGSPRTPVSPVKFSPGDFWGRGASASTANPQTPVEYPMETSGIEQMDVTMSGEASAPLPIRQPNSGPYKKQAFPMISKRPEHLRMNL

As for `Nc1cc(N)c2c(c1)C(=O)NC2=O` [Compound 4, 4,6-diaminoisoindoline-1,3-dione], at p70S6K1, the inhibition at 10 µM is 70% and the concentration for half-maximal inhibition (IC50) is 1200 nM.

Consider `Nc1cc(NC(=O)Cc2ccccc2)cc2c1C(=O)NC2=O` [Compound 5b, N-(7-amino-1,3-dioxoisoindolin-5-yl)-2-phenylacetamide], for which, at p70S6K1, the inhibition at 10 µM was > 90%, the half-maximal inhibitory concentration (IC50) was 400 nM and the “IC50 of inhibition of p70S6K1” value is listed as “sub-micromolar”. The “rpS6 protein expression and phosphorylation (S235/236, S240/244), immunoblot band intensity” value in data set [1] is recorded as “significant decreases”. Moreover, in the data set with MCF7 E3 cells, the inhibition at 10 µM is 60%.

For `Nc1cc(NC(=O)Cc2ccc(C(F)(F)F)cc2)cc2c1C(=O)NC2=O` [Compound 5c, N-(7-amino-1,3-dioxoisoindolin-5-yl)-2-(4-(trifluoromethyl)phenyl)acetamide], the inhibition at 10 µM stood at 80% on p70S6K1 and 35% with MCF7 E3 cells. Also, the IC50 against p70S6K1 stood at 5450 nM.

In the case of `Nc1cc(NC(=O)Cc2cccc(C(F)(F)F)c2)cc2c1C(=O)NC2=O` [Compound 5d, N-(7-amino-1,3-dioxoisoindolin-5-yl)-2-(3-(trifluoromethyl)phenyl)acetamide], at p70S6K1, the inhibition at 10 µM was > 90%, the IC50 amounted to 510 nM and the “IC50 of inhibition of p70S6K1” value was “sub-micromolar”. For the same compound, in the data set with MCF7 E3 cells, the inhibition at 10 µM came out at 56%.

`Nc1cc(NC(=O)C23CC4CC(CC(C4)C2)C3)cc2c1C(=O)NC2=O` [Compound 5e, N-(7-amino-1,3-dioxoisoindolin-5-yl)adamantane-1-carboxamide]: the inhibition at 10 µM against p70S6K1 is 22%.

`Nc1cc(NC(=O)Cc2ccc(Br)cc2)cc2c1C(=O)NC2=O` [Compound 5f, N-(7-amino-1,3-dioxoisoindolin-5-yl)-2-(4-bromophenyl)acetamide]: on p70S6K1, 10 µM produced 93% inhibition, the IC50 stood at 750 nM and the “IC50 of inhibition of p70S6K1” value is on record as “sub-micromolar”. Also, the inhibition at 10 µM with MCF7 E3 cells was 40%.

In the case of `Cn1cc(-c2ccc(F)c(C(F)(F)F)c2)nc1C1CCN(c2ncnc3[nH]ncc23)CC1` [LY-2584702], the “tolerability in Phase I trials” value in data set [2] was “not well-tolerated”.

Turning to `CCc1cncnc1N1CCN(Cc2nc3cc(C(F)(F)F)ccc3[nH]2)CC1` [PF-4708671], the “tolerability in preclinical studies” value in data set [3] (preclinical studies for breast cancer) was “well-tolerated”. Further, in data set [3], the “blood–brain barrier (BBB) penetration” value is “poor blood–brain barrier (BBB) penetrant”.

For the compound `COC(=O)[C@@H](Cc1ccc(O)c(O)c1)OC(=O)/C=C/c1ccc(O)c(O)c1` [Rosmarinic acid methyl ester], the “autophagy and apoptotic cell death” value with cervical cancer cells is “increase in autophagy and apoptotic cell death”.

The record behind these values is article PMC11694070, “Development of 6-amido-4-aminoisoindolyn-1,3-diones as p70S6K1 inhibitors and potential breast cancer therapeutics” (Frontiers in Molecular Biosciences, 2024).
